In patent US11524966B1 (Valo Early Discovery, Inc., priority 2017, dated 2022):

Molecular target: T1, USP28 (His-tagged USP28-FL-mammalian) (Homo sapiens, UniProt Q96RU2)
T1 construct: Expression of USP28 (1-1077)-TEV-6*His (pTT5 vector); made in house; host or cells: Expi293f cells (pTT5 vector)
T1 sequence (Q96RU2 1-1077): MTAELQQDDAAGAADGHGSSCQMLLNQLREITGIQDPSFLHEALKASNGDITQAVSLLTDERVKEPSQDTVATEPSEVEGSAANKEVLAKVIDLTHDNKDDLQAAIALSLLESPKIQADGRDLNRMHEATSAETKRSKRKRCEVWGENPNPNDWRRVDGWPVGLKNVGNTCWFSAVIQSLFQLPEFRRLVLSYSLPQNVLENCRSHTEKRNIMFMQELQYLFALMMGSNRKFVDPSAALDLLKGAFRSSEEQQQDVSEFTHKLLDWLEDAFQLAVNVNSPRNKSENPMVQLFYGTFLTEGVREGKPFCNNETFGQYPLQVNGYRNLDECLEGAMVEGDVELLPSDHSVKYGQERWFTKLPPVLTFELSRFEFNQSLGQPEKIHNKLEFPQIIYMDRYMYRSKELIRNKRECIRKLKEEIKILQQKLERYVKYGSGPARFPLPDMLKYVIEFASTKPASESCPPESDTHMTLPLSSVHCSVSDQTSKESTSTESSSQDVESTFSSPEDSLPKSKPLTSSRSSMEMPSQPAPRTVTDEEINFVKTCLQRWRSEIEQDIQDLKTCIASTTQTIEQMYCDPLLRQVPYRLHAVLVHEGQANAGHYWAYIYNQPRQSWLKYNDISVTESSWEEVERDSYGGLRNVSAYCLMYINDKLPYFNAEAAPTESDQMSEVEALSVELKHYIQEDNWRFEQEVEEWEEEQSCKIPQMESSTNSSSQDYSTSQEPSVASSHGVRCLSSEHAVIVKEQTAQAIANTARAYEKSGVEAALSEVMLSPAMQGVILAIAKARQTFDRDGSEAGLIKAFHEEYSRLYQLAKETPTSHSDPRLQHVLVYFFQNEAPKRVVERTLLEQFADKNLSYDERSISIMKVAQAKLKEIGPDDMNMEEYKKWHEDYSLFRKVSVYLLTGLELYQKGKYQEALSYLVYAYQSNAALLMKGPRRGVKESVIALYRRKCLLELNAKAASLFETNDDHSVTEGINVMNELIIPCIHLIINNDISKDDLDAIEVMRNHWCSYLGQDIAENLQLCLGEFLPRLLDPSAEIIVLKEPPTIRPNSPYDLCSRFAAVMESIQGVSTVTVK
Assay: Ubiquitin-Rhodamine 110 Assay for USP28 Activity, Example A-1(a)
Format: biochemical
Conditions: Ubiquitin-Rhodamine 110 assay, Example A-1(a); read-out: USP28 A-1(a) IC50 range
How it was run: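 Full-length His-tagged human USP28 (1-1077, Expi293f-expressed), […], with 25 nM Ub-Rh110 (<<Km) in pH 8.0 Tris buffer with BME, BGG, Triton X-100. 10-point dilutions (25 μM-1.3 nM), 45 min at room temperature, citric acid stop, fluorescence 485/535 nm; IC50 by 4-parameter fit.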

| Compound | IC50 [nM] |
| --- | --- |
| Cc1cnc2c(N)c(C(=O)N[C@H]3COc4cc(N5CCNCC5)cc(F)c4C3)sc2n1 [Example 10-10, (R)-7-amino-N-(5-fluoro-7-(piperazin-1-yl)chroman-3-yl)-3-methylthieno[2,3-b]pyrazine-6-carboxamide] | 1 to 50 |
| COc1ccc2c(N)c(C(=O)N[C@H]3COc4cc(N5CCNCC5)cc(F)c4C3)sc2n1 [Example 10-11, (R)-3-amino-N-(5-fluoro-7-(piperazin-1-yl)chroman-3-yl)-6-methoxythieno[2,3-b]pyridine-2-carboxamide] | 1 to 50 |
| Cc1cnc2c(N)c(C(=O)N[C@H]3COc4cc(N5CC6CNCC(C5)O6)cc(F)c4C3)sc2n1 [Example 10-12, N-((3R)-7-(9-oxa-3,7-diazabicyclo[3.3.1]nonan-3-yl)-5-fluorochroman-3-yl)-7-amino-3-methylthieno[2,3-b]pyrazine-6-carboxamide] | 1 to 50 |
| Cc1cc(C)c2c(N)c(C(=O)N[C@H]3COc4cc(N5CC6CNCC(C5)O6)cc(F)c4C3)sc2n1 [Example 10-13, N-((3R)-7-(9-oxa-3,7-diazabicyclo[3.3.1]nonan-3-yl)-5-fluorochroman-3-yl)-3-amino-4,6-dimethylthieno[2,3-b]pyridine-2-carboxamide] | 1 to 50 |
| Cc1cc(C(F)(F)F)c2c(N)c(C(=O)N[C@H]3COc4cc(N5CCNCC5)cc(F)c4C3)sc2n1 [Example 10-14, (R)-3-amino-N-(5-fluoro-7-(piperazin-1-yl)chroman-3-yl)-6-methyl-4-(trifluoromethyl)thieno[2,3-b]pyridine-2-carboxamide] | 1 to 50 |
| Cc1ccc2c(N)c(C(=O)N(C)[C@H]3COc4cc(N5CCNCC5)cc(F)c4C3)sc2n1 [Example 10-15, 3-amino-N-[(3R)-5-fluoro-7-(piperazin-1-yl)-3,4-dihydro-2H-1-benzopyran-3-yl)-N,6-dimethylthieno[2,3-b]pyridine-2-carboxamide] | > 2000 |
| Cc1ccc2c(N)c(C(=O)N[C@H]3CCc4cc(N5CC6CCC(C5)N6)ccc4C3)sc2n1 [Example 11-1, N-((2S)-6-(3,8-diazabicyclo[3.2.1]octan-3-yl)-1,2,3,4-tetrahydronaphthalen-2-yl)-3-amino-6-methylthieno[2,3-b]pyridine-2-carboxamide] | 1 to 50 |
| Cc1ccc2c(N)c(C(=O)N[C@@H]3CCc4cc(N5CC6CCC(C5)N6)ccc4C3)sc2n1 [Example 11-2, N-((2R)-6-(3,8-diazabicyclo[3.2.1]octan-3-yl)-1,2,3,4-tetrahydronaphthalen-2-yl)-3-amino-6-methylthieno[2,3-b]pyridine-2-carboxamide] | 50 to 200 |

Same assay, conditions: Ubiquitin-Rhodamine 110 assay, format Example A-1(a); read-out: USP28 A-1(a) IC50 range

| Compound | IC50 [nM] |
| --- | --- |
| Cc1ccc2c(N)c(C(=O)N[C@H]3COc4cc(N5CC6CCC(C5)N6)c(F)c(F)c4C3)sc2n1 [Example 13-3, N-((3R)-7-(3,8-diazabicyclo[3.2.1]octan-3-yl)-5,6-difluorochroman-3-yl)-3-amino-6-methylthieno[2,3-b]pyridine-2-carboxamide] | 200 to 2000 |
| Cc1ccc2c(N)c(C(=O)N[C@@H]3COc4cc(N5CC6CCC(C5)N6)c(F)c(F)c4C3)sc2n1 [Example 13-4, N-((3S)-7-(3,8-diazabicyclo[3.2.1]octan-3-yl)-5,6-difluorochroman-3-yl)-3-amino-6-methylthieno[2,3-b]pyridine-2-carboxamide] | 1 to 50 |
| Cc1ccc2c(N)c(C(=O)N[C@H]3COc4cc(N5CCNCC5)c(Cl)cc4C3)sc2n1 [Example 13-5, (R)-3-amino-N-(6-chloro-7-(piperazin-1-yl)chroman-3-yl)-6-methylthieno[2,3-b]pyridine-2-carboxamide] | > 2000 |
| Cc1ccc2c(N)c(C(=O)N[C@@H]3COc4c(ccc(N5CCNCC5)c4Cl)C3)sc2n1 [Example 13-8, (S)-3-amino-N-(8-chloro-7-(piperazin-1-yl)chroman-3-yl)-6-methylthieno[2,3-b]pyridine-2-carboxamide] | 200 to 2000 |
| Cc1ccc2c(N)c(C(=O)N[C@H]3COc4c(ccc(N5CCNCC5)c4Cl)C3)sc2n1 [Example 13_7, (R)-3-amino-N-(8-chloro-7-(piperazin-1-yl)chroman-3-yl)-6-methylthieno[2,3-b]pyridine-2-carboxamide] | 1 to 50 |
| Cc1ccc2c(N)c(C(=O)N[C@H]3COc4cc(N5CCNCC5)ncc4C3)sc2n1 [Example 16, (R)-3-Amino-6-methyl-N-(7-(piperazin-1-yl)-3,4-dihydro-2H-pyrano[3,2-c]pyridin-3-yl)thieno[2,3-b]pyridine-2-carboxamide] | 1 to 50 |
| Cc1ccc2c(N)c(C(=O)N[C@H]3COc4cc(N5CC6CCC(C5)N6)nc(F)c4C3)sc2n1 [Example 17, N-((3R)-7-(3,8-Diazabicyclo[3.2.1]octan-3-yl)-5-fluoro-3,4-dihydro-2H-pyrano[3,2-c]pyridin-3-yl)-3-amino-6-methylthieno[2,3-b]pyridine-2-carboxamide] | 1 to 50 |
| Cc1ccc2c(N)c(C(=O)N[C@H]3COc4c(cnc(N5CC6CCC(C5)N6)c4F)C3)sc2n1 [Example 18, N-((3R)-7-(3,8-Diazabicyclo[3.2.1]octan-3-yl)-8-fluoro-3,4-dihydro-2H-pyrano[3,2-c]pyridin-3-yl)-3-amino-6-methylthieno[2,3-b]pyridine-2-carboxamide] | 1 to 50 |
| Cc1ccc2c(N)c(C(=O)N[C@H]3COc4nc(N5CCNCC5)ccc4C3)sc2n1 [Example 19, (R)-3-Amino-6-methyl-N-(7-(piperazin-1-yl)-3,4-dihydro-2H-pyrano[2,3-b]pyridin-3-yl)thieno[2,3-b]pyridine-2-carboxamide] | 50 to 200 |
| Cc1ccc2c(N)c(C(=O)N[C@H]3COc4nc(N5CCNCC5)c(F)cc4C3)sc2n1 [Example 20, (R)-3-Amino-N-(6-fluoro-7-(piperazin-1-yl)-3,4-dihydro-2H-pyrano[2,3-b]pyridin-3-yl)-6-methylthieno[2,3-b]pyridine-2-carboxamide] | 50 to 200 |
| CO[C@H]1CN(c2ccc3c(n2)CC[C@H](NC(=O)c2sc4nc(C)cc(C)c4c2N)C3)C[C@@H]1N [Example 23-3, 3-amino-N-[(6S)-2-[(3S,4S)-3-amino-4-methoxypyrrolidin-1-yl]-5,6,7,8-tetrahydroquinolin-6-yl]-4,6-dimethylthieno[2,3-b]pyridine-2-carboxamide] | 50 to 200 |
| CO[C@H]1CN(c2ccc3c(n2)CC[C@H](NC(=O)c2sc4nc(C)ccc4c2N)C3)C[C@@H]1N [Example 23-4, 3-amino-N-[(6S)-2-[(3S,4S)-3-amino-4-methoxypyrrolidin-1-yl]-5,6,7,8-tetrahydroquinolin-6-yl]-6-methylthieno[2,3-b]pyridine-2-carboxamide] | 50 to 200 |
| CO[C@H]1CN(c2ccc3c(n2)CC[C@@H](NC(=O)c2sc4nc(C)ccc4c2N)C3)C[C@@H]1N [Example 23-5, 3-amino-N-[(6R)-2-[(3S,4S)-3-amino-4-methoxypyrrolidin-1-yl]-5,6,7,8-tetrahydroquinolin-6-yl]-6-methylthieno[2,3-b]pyridine-2-carboxamide] | 200 to 2000 |
